Experimental data taken from patent US20240050577A1, “CDK INHIBITORS AND PHARMACEUTICAL USES THEREOF” (RISEN (SUZHOU) PHARMA TECH CO., LTD., priority 2022, published 2024).

Test system: OVCAR3 cells
Test: Cell proliferation study (Cell Titer Glo, 72 h)
Format: cell-based
Settings: Homo sapiens, OVCAR-3, luminescence, read-out: IC50, inhibitory effect on cellular proliferation
Experimental: OVCAR3 (Cobioer, CBP60294) cell line in logarithmic growth phase was used for these experiments. The cell density was adjusted to 1.1×10^4/mL and the cells were inoculated into a 96-well cell culture plate (Corning, 3599), 95 μL per well (the number of cells per well was 1×10^3). The culture plate was placed in an incubator, with 5% carbon dioxide, at 37° C. and incubated overnight. On the next day, a 10 mM stock solution of test compound was prepared in DMSO (Sigma, RNBF5902). After gradient dilution, a series of working solutions with different concentrations of test compound was prepared using complete medium. Working solution was added into the corresponding wells of the orifice plate, and the plate was placed in a 5% carbon dioxide incubator and cultivated at 37° C. for 72 h, and then removed from the incubator. To each well was added 50 μL Cell Tier Glo (Promega, G7573), and the plate was incubated at room temperature for 10 min, followed by luminescence detection with an enzyme marker. The inhibition curve was obtained with GraphPad 7.0 software using four-parameter equation.

| IC50 [nM] | Compound |
| --- | --- |
| < 100 | Cc1nc2c(F)cc(-c3nc(NC4CCN(S(=O)(=O)C5CCN(CC6CC(N7CCC(c8ccc9c(C%10CCC(=O)NC%10=O)nn(C)c9c8)CC7)C6)CC5)CC4)ncc3F)cc2n1C(C)C (stereo not shown) [Compound 103] |
| 101 to 1000 | Cc1nc2c(F)cc(-c3nc(NC4CCN(S(=O)(=O)C5CCN(CCC6CCN(c7cc8c(cc7F)C(=O)N(C7CCC(=O)NC7=O)C8=O)CC6)CC5)CC4)ncc3F)cc2n1C(C)C (stereo not shown) [Compound 104] |
| 101 to 1000 | Cc1nc2c(F)cc(-c3nc(Nc4ccc(S(=O)(=O)N5CCC6(CCN(C(=O)CNc7cc8c(cc7F)C(=O)N(C7CCC(=O)NC7=O)C8=O)CC6)CC5)cc4)ncc3F)cc2n1C(C)C (stereo not shown) [Compound 105] |
| 1000 to 5000 | Cc1nc2c(F)cc(-c3nc(Nc4ccc(S(=O)(=O)N5CCC6(CCN(CC7CCN(c8cc9c(cc8F)C(=O)N(C8CCC(=O)NC8=O)C9=O)CC7)CC6)CC5)cc4)ncc3F)cc2n1C(C)C (stereo not shown) [Compound 106] |
| 101 to 1000 | C[C@@]1(O)CCC[C@H]1n1c(=O)ccc2cnc(NC3CCN(S(=O)(=O)C4CCN(C5CC6(CCN(c7cccc8c7C(=O)N(C7CCC(=O)NC7=O)C8=O)CC6)C5)CC4)CC3)nc21 (stereo partly shown) [Compound 107] |
| < 100 | Cc1nc2c(F)cc(-c3nc(NC4CCN(S(=O)(=O)C5CCN(CC6CCN(c7cc8c(cc7F)C(=O)N(C7CCC(=O)NC7=O)C8=O)C6)CC5)CC4)ncc3F)cc2n1C(C)C (stereo not shown) [Compound 108] |
| 1000 to 5000 | Cc1nc2c(F)cc(-c3nc(NC4CCN(S(=O)(=O)C5CN(CC6CN(c7cc8c(cc7F)C(=O)N(C7CCC(=O)NC7=O)C8=O)C6)C5)CC4)ncc3F)cc2n1C(C)C (stereo not shown) [Compound 109] |
| 101 to 1000 | Cc1nc2c(F)cc(-c3nc(Nc4ccc(S(=O)(=O)C5CCN(CC6CCN(c7cc8c(cc7F)C(=O)N(C7CCC(=O)NC7=O)C8=O)CC6)CC5)cc4)ncc3F)cc2n1C(C)C (stereo not shown) [Compound 110] |
| < 100 | Cc1nc2c(F)cc(-c3nc(N[C@@H]4CCN(S(=O)(=O)C5CCN(CC6CCN(c7cc8c(cc7F)C(=O)N(C7CCC(=O)NC7=O)C8=O)CC6)CC5)C[C@H]4O)ncc3F)cc2n1C(C)C (stereo partly shown) [Compound 111] |
| 101 to 1000 | Cc1nc2c(F)cc(-c3nc(N[C@@H]4CCN(S(=O)(=O)C5CCN(CC6CCN(c7cc8c(cc7F)C(=O)N(C7CCC(=O)NC7=O)C8=O)CC6)CC5)C[C@H]4O)ncc3Cl)cc2n1C(C)C (stereo partly shown) [Compound 112] |
